Our source for the Emax, EC50 and JC-1 max % values is patent publication US9983218B2, “Indole and indoline derivatives and methods of use thereof” (AbbVie Inc., priority 2008, dated 2018).

One may read the EC50 as the concentration needed to bring the measured effect to its halfway point.

Like-named read-outs stand apart in the source and are kept apart here.

In this assay the test system is SK-N-SH human neuroblastoma cells. The assay can be described thus: Serum deprivation/JC-1 mitochondrial membrane potential (MMP) assay. Format: cell-based. The following applies: for Emax: SK-N-SH, read-out: JC-1 max %; for EC50: SK-N-SH cells, serum deprivation ~18 hours, JC-1 ratio normalized to peak value for 10 μM dimebolin, single curve fit to mean data of n=2-3, read-out: EC50. The method, then:
SK-N-SH human neuroblastoma cells obtained from American Type Culture Collection (Rockville, Md.) were maintained in the log phase of growth in Minimal Essential Media (MEM), 10% heat inactivated fetal calf serum and 100 units/mL antibiotic-antimycotic (AA). Cells were cultured and maintained in a humidified incubator at 37° C. under 5% CO2 and 95% air. Cells were trypsinized (0.25%) and subcultured every 3 days and used from 15-18 passages. All cell culture supplies were obtained from Invitrogen (Carlsbad, Calif.).
SK-N-SH cells were plated 2-3 days in advance at a concentration of 50,000 cells/well onto collagen coated black-walled 96 well plates (Becton-Dickinson, Bedford, Mass.) in a total volume of 200 μL. On day of experimental treatment, the media containing serum was aspirated from each well and rinsed once with MEM/1% AA without serum. The cells then were incubated overnight in 100 μL of MEM/1% AA (no serum) with and without dimebolin or novel chemical entities overnight for ˜18 hours. The following day, JC-1 dye (5,5′,6,6′-tetrachloro-1,1′,3,3′-tetraethylbenzimidazolcarbocyanide) was diluted 1:10 into MEM media according to the JC-1 Mitochondrial Membrane Potential Assay Kit: (Cayman Chemical Company, Ann Arbor, Mich.) and then 10 μL of the JC-1 dye solution was added to each well. The plates were centrifuged for 5 minutes at 400×g at room temperature followed by 35 minute incubation at 37° C. The plates were washed twice with 200[…] μL of provided Assay Buffer followed an addition of 100 μL of Assay Buffer to each well. The plates were read with an excitation and emission of 560 nm and 595 nM for red fluorescence and with an excitation and emission of 485 nm and 535 nM for green fluorescence to determine the final JC-1 value taking the red to green fluorescence ratio. This assay is based on change in mitochondrial membrane potential (MMP) using this lipophilic cationic dye, JC-1, by monitoring the changes in the ratio of red to green fluorescence as the MMP depolarizes. This change in MMP reflects the health of the cell with healthy, viable cells have a high JC-1 ratio and high MMP whereas apoptotic, unhealthy cells have a low JC-1 ratio or low MMP.
For the ability of compounds to reverse the stress due to serum deprivation and increase the JC-1 ratio, the percent maximal intensity in JC-1 ratio was normalized to that induced by the peak value for 10 μM dimebolin and plotted against the compound concentration to calculate EC50 values and to control for plate-to-plate variability. Concentration-response data were analyzed using GraphPad Prism (San Diego, Calif.); the EC50 values were derived from a single curve fit to the mean data of n=2-3, in duplicates.
All compounds were dissolved in dimethyl sulfoxide at 10 mM stock solutions and tested at a concentration that the dimethyl sulfoxide levels never exceeded 1%.

[1] abbreviates: Homo sapiens, percent maximal intensity in JC-1 ratio normalized to 10 μM dimebolin.

As for `CCN1C2CCC1c1c(n(CCc3ccc(C)nc3)c3ccc(C)cc13)C2` (stereo not drawn) [Example 12, 11-ethyl-2-methyl-5-[2-(6-methylpyridin-3-yl)ethyl]-5,6,7,8,9,10-hexahydro-7,10-epiminocyclohepta[b]indole], under setting [1], the Emax worked out at 181%. Also, the EC50 (Homo sapiens) stood at 5.58 µM.

Turning to `Clc1ccc(CCn2c3c(c4cc(Br)ccc42)CN2CCC3CC2)cc1` [Example 174, 9-bromo-6-[2-(4-chlorophenyl)ethyl]-3,4,5,6-tetrahydro-1H-2,5-ethanoazepino[4,3-b]indole], the Emax under setting [1] was found to be 105%. Moreover, where the note is “Homo sapiens”, the EC50 is 5.48 µM.

Take `FC(F)(F)c1ccc(Cn2c3c(c4ccccc42)CN2CCC3CC2)cn1` [Example 256, 6-{[6-(trifluoromethyl)pyridin-3-yl]methyl}-3,4,5,6-tetrahydro-1H-2,5-ethanoazepino[4,3-b]indole]: the Emax under setting [1] was determined as 89.6%. Moreover, the EC50 (Homo sapiens) stood at 15.5 µM.

`Cc1ccc2c(c1)c1c(n2/C=C/c2ccc(C)nc2)CC2CCCC1N2C` (stereo not drawn) [Example 122, 2,12-dimethyl-5-[(E)-2-(6-methylpyridin-3-yl)vinyl]-6,7,8,9,10,11-hexahydro-5H-7,11-epiminocycloocta[b]indole]: the Emax under setting [1] came out at 141%. Further, the EC50 (Homo sapiens) was 5.29 µM.

As for `Cc1ccc2c(c1)c1c(n2CCc2ccccc2F)CC2CCC1N2C` (stereo not drawn) [Example 43, 5-[2-(2-fluorophenyl)ethyl]-2,11-dimethyl-5,6,7,8,9,10-hexahydro-7,10-epiminocyclohepta[b]indole], the Emax under setting [1] was found to be 202%. For the same compound, the EC50 (Homo sapiens) was found to be 7.64 µM.

Take `Cc1ccc2c(c1)c1c(n2-c2ccc3ncncc3c2)C2CCN(CC2)C1` [Example 219, 9-methyl-6-quinazolin-6-yl-3,4,5,6-tetrahydro-1H-2,5-ethanoazepino[4,3-b]indole]: the Emax under setting [1] came to 201%. The EC50 (Homo sapiens) is 3.07 µM.

As to `Fc1ccc2c(c1)c1c(n2Cc2cnc(-c3ccccc3)nc2)C2CCN(CC2)C1` [Example 249, 9-fluoro-6-[(2-phenylpyrimidin-5-yl)methyl]-3,4,5,6-tetrahydro-1H-2,5-ethanoazepino[4,3-b]indole], the Emax under setting [1] stood at 133%. Moreover, the EC50 (Homo sapiens) was 5.27 µM.

Take `c1ccc2c(c1)c1c(n2-c2cc(-n3ccnc3)ccn2)C2CCN(CC2)C1` [Example 272, 6-[4-(1H-imidazol-1-yl)pyridin-2-yl]-3,4,5,6-tetrahydro-1H-2,5-ethanoazepino[4,3-b]indole]: under setting [1], the Emax was 149%. Besides, the EC50 (Homo sapiens) is 3.99 µM.

With `Cc1ccc2c(c1)[C@@H]1[C@@H](C3CCN1CC3)N2CCc1ccc(C)nc1` (relative stereo) [Example 213, (4aR*,9bR*)-8-methyl-5-[2-(6-methylpyridin-3-yl)ethyl]-2,3,4,4a,5,9b-hexahydro-1,4-ethanopyrido[3,2-b]indole], the Emax under setting [1] came out at 177%. For the same compound, where the note is “Homo sapiens”, the EC50 came to 5.43 µM.

Take `Cc1ccc2c(c1)c1c(n2CCc2ccc(C)nc2)C2CCCN(C1)C2` (stereo not drawn) [Example 202, 10-methyl-7-[2-(6-methylpyridin-3-yl)ethyl]-1,3,4,5,6,7-hexahydro-2,6-methanoazocino[4,3-b]indole]: the Emax under setting [1] was 239%. The EC50 (Homo sapiens) stood at 3.07 µM.

`Fc1ccc2c(c1)c1c(n2Cc2cccc3cccnc23)C2CCN(CC2)C1` [Example 251, 9-fluoro-6-(quinolin-8-ylmethyl)-3,4,5,6-tetrahydro-1H-2,5-ethanoazepino[4,3-b]indole]: the Emax under setting [1] is 193%. Besides, the EC50 (Homo sapiens) was 4.39 µM.

As to `Cc1ccc2c(c1)c1c(n2CCc2cccc(C(F)(F)F)c2)C2CCN(CC2)C1` [Example 152, 9-methyl-6-{2-[3-(trifluoromethyl)phenyl]ethyl}-3,4,5,6-tetrahydro-1H-2,5-ethanoazepino[4,3-b]indole], the Emax under setting [1] was found to be 156%. Moreover, the EC50 (Homo sapiens) was found to be 3.86 µM.

Turning to `Cc1ccc(/C=C\n2c3c(c4cc(C)ccc42)[C@@H]2CC[C@H](C3)N2C)cc1` (single isomer, unassigned) [Example 61], the Emax under setting [1] turned out to be 211%. The EC50 (Homo sapiens) was 4.37 µM.

Take `c1ccc(Cn2c3c(c4ccccc42)CN2CCC3CC2)nc1` [Example 187, 6-[(pyridin-2-yl)methyl]-3,4,5,6-tetrahydro-1H-2,5-ethanoazepino[4,3-b]indole]: the Emax under setting [1] was 110%. Besides, the EC50 (Homo sapiens) was 9.37 µM.

Consider `Cc1ccc2c(c1)[C@H]1CN3CCC(CC3)[C@H]1N2CCc1ccc(C)nc1` (single isomer, unassigned) [Example 160], for which, under setting [1], the Emax was determined as 194%. Moreover, the EC50 (Homo sapiens) came to 1.61 µM.

Regarding `O=c1ccccn1-c1cccc(-n2c3c(c4cc(F)ccc42)CN2CCC3CC2)n1` [Example 258, 6′-(9-fluoro-1,3,4,5-tetrahydro-6H-2,5-ethanoazepino[4,3-b]indol-6-yl)-2H-1,2′-bipyridin-2-one], the Emax under setting [1] stood at 149%. Also, the EC50 (Homo sapiens) is 2.99 µM.

On to `Cc1ccc2c(c1)c1c(n2S(=O)(=O)c2ccc(Cl)cc2)C2CCN1CC2` [Example 215, 5-[(4-chlorophenyl)sulfonyl]-8-methyl-2,3,4,5-tetrahydro-1,4-ethanopyrido[3,2-b]indole], for which the Emax under setting [1] was 196%. In addition, the EC50 (Homo sapiens) was found to be 3.34 µM.

With `Cc1ccc(CCn2c3c(c4ccccc42)C2CCC(C3)N2C)cn1` (stereo not drawn) [Example 78, 11-methyl-5-[2-(6-methylpyridin-3-yl)ethyl]-5,6,7,8,9,10-hexahydro-7,10-epiminocyclohepta[b]indole], the Emax under setting [1] worked out at 211%. For the same compound, the EC50 (Homo sapiens) stood at 9.69 µM.

For `Cc1ccc2c(c1)c1c(n2CCc2ccc(C)nc2)C[C@H]2CCC[C@@H]1N2` (single isomer, unassigned) [Example 120], the Emax under setting [1] stood at 197%. In addition, the EC50 (Homo sapiens) stood at 3.4 µM.

As to `Cc1ccc(/C=C/n2c3c(c4cc(F)ccc42)CN2CCC3CC2)cn1` [Example 162, 9-fluoro-6-[(E)-2-(6-methylpyridin-3-yl)vinyl]-3,4,5,6-tetrahydro-1H-2,5-ethanoazepino[4,3-b]indole], under setting [1], the Emax stood at 205%. Also, for the setting “Homo sapiens”, the EC50 worked out at 17 µM.

In the case of `c1ccc2c(c1)c1c(n2-c2ccc3c(c2)CCNC3)C2CCN(CC2)C1` [Example 267, 6-(1,2,3,4-tetrahydroisoquinolin-6-yl)-3,4,5,6-tetrahydro-1H-2,5-ethanoazepino[4,3-b]indole], under setting [1], the Emax worked out at 70%. Moreover, the concentration for a half-maximal effect (EC50) (Homo sapiens) was 9.72 µM.

On to `Cc1ccc2c(c1)c1c(n2CCc2cnc(C)nc2)C[C@@H]2CC[C@H]1N2C` [Example 32, (7S,10R)-2,11-dimethyl-5-[2-(2-methylpyrimidin-5-yl)ethyl]-5,6,7,8,9,10-hexahydro-7,10-epiminocyclohepta[b]indole], for which, under setting [1], the Emax is 53%. The EC50 (Homo sapiens) is 17.3 µM.

In the case of `Fc1ccc2c(c1)c1c(n2-c2ccc3cccnc3c2)C2CCN(CC2)C1` [Example 226, 9-fluoro-6-quinolin-7-yl-3,4,5,6-tetrahydro-1H-2,5-ethanoazepino[4,3-b]indole], the Emax under setting [1] worked out at 307%. Moreover, the EC50 (Homo sapiens) amounted to 1.68 µM.

Consider `NC(=O)c1cc(-n2c3c(c4ccccc42)CN2CCC3CC2)ccc1N` [Example 276, 2-amino-5-(3,4,5,6-tetrahydro-1H-2,5-ethanoazepino[4,3-b]indol-6(1H)-yl)benzamide], for which the EC50 is 6.65 µM. The JC-1 max % (percent maximal intensity in JC-1 ratio normalized to 10 μM dimebolin) stood at 80.55%.

Take `Fc1ccc2c(c1)c1c(n2Cc2ccc(N3CCCCC3)nc2)C2CCN(CC2)C1` [Example 241, 9-fluoro-6-{[6-(piperidin-1-yl)pyridin-3-yl]methyl}-3,4,5,6-tetrahydro-1H-2,5-ethanoazepino[4,3-b]indole]: the Emax under setting [1] amounted to 156%. For the setting “Homo sapiens”, the EC50 came to 7.96 µM.

As to `O=C1COc2cc(-n3c4c(c5ccccc53)CN3CCC4CC3)ccc2N1` [Example 275, 7-(1,3,4,5-tetrahydro-6H-2,5-ethanoazepino[4,3-b]indol-6-yl)-2H-1,4-benzoxazin-3(4H)-one], under setting [1], the Emax was determined as 130%. For the same compound, the EC50 (Homo sapiens) is 3.44 µM.

As to `c1cnc2ccc(-n3c4c(c5ccccc53)CN3CCC4CC3)cc2c1` [Example 233, 6-quinolin-6-yl-3,4,5,6-tetrahydro-1H-2,5-ethanoazepino[4,3-b]indole], the Emax under setting [1] was 250%. Besides, for the setting “Homo sapiens”, the EC50 was found to be 0.8 µM.
